Legend:
L1210 leukemia = settings: animals bearing L1210 leukemia; cited from earlier work
P388 leukemia = settings: animals bearing P388 leukemia; cited from earlier work
[1] = animals; relative to MTX; cited from earlier work
[2] = system: human tumor cell lines in culture; test: Human Tumor Disease Oriented in vitro screen, panel as a whole; assay type: cell-based; settings: relative to methotrexate, or enantiomer comparison
Method: Further, by analogy to methotrexate (rheumatrex) L-MDAM should be useful in the treatment of autoimmune diseases such as rheumatoid arthritis and inflammatory diseases such as asthma.
A 48 h continuous drug exposure protocol was used combined with an SR13
protein assay to estimate cell growth or viability.

[3] = system: Human HCT-8 Ileocecal Xenograft; test: Antitumor activity by I.V. push, daily × 5, against human HCT-8 ileocecal xenograft; settings: for CR: Complete Regression / MIR: Maximum inhibitory rate / PR: Partial Regression / TD: Tumor doubling time: i.v. push daily × 5
Source text: [M. G. Nair and Ann Abraham, U.S. Pat. No. 4,996,207 (1991); M. G. Nair, U.S. Pat. No. 5,073,554 (1991 )]. […] [Ann Abraham, M. G. Nair, et al. Advanced in Exp. Med. and Biol. 663-666 (1993)].
MIR: Maximum inhibitory rate. TD: Tumor doubling time.
CR: Complete Regression. PR Partial Regression.
(§1) MWL: Maximum Weight Loss.

[4] = system: transport of radiolabeled folinic acid to H35 hepatoma cells; test: Inhibition of transport of radiolabeled folinic acid to H35 hepatoma cells; assay type: cell-based; settings: H35 hepatoma cells; read-out: l50 value, inhibition of transport of radiolabeled folinic acid
Method: (§2) Independent, further evidences to the identity of L-MDAM as the biologically active enantiomer of the racemic mixture of D,L-MDAM (previously described as MDAM; Ref, U.S. Pat. No. 4,996,207) was obtained by the following data. […] The cytotoxicity of L-MDAM versus D,L-MDAM was also compared. […] The l50 value for growth inhibition (Gl50) was 39 nM for D,L-MDAM. […] Taken together, these unexpected and novel results establish that the biologically active compound present in the racemic mixture of MDAM is the L-enantiomer described in claim number 1.

[5] = target: T1, Recombinant Human Dihydrofolate Reductase (Homo sapiens, UniProt P00374); test: Inhibition of recombinant human dihydrofolate reductase, spectrophotometric enzyme assay; assay type: biochemical
T1 sequence (P00374 1-187): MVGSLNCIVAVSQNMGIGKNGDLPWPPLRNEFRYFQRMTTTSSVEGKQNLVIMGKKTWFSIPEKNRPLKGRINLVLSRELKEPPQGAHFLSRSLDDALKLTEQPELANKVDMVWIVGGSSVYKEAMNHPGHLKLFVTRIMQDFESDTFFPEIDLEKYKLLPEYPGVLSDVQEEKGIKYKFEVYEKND
Method: Enzyme assay was performed spectrophotometrically in a solution containin
50 μM dihydrofolate, 80 μM NADPH, 0.05 M Tris HCl. 0.01 M
2mercaptoethanol and 0.001 M EDTA at pH 7.4 at 30°. The reaction
Pure human recombinant enzyme was used.

H35 hepatoma cells = test: Growth inhibition of H35 hepatoma cells in culture; assay type: cell-based; settings: H35 hepatoma cells in culture, identical conditions; read-out: l50 value for growth inhibition (Gl50)
Method: as §2

[6] = system: Human HCT-8 Ileocecal Xenograft; test: Antitumor activity by continuous i.v. infusion (C.I.) × 5d against human HCT-8 ileocecal xenograft; assay type: in vivo, human (xenograft in nude mice); settings: C.I. × 5d
Source text: Antitumor Activity of MDAM by C.I. × 5d
against HUMAN HCT-8 Ileocecal Xenograft
MIR: Maximum inhibitory rate.
TD: Tumor doubling time.
CR: Complete Regression.
PR: Partial Regression.
as §1

[7] = single iv push daily for 5 days at the maximum tolerated dose, nude mice

Compound: C=C(CC(NC(=O)c1ccc(CCc2cnc3nc(N)nc(N)c3n2)cc1)C(=O)O)C(=O)O (racemic) [D,L-MDAM, γ-methylene-10-deazaaminopterin]
- in vivo antitumor activity relative to MTX (L1210 leukemia): superior in vivo antitumor activity relative to the polyglutamylatable MTX
- in vivo antitumor activity relative to MTX (P388 leukemia): superior in vivo antitumor activity relative to the polyglutamylatable MTX
- tolerability [1]: tolerated by animals at higher doses
- activity/potency in inhibiting growth of human tumor cell lines (in words) [2]: more potent activity relative to methotrexate in several tumor cell lines
- activity/potency in inhibiting growth of human tumor cell lines (in words) ([2]; listed as MDAM): equivalent or greater potency than methotrexate
- CR: Complete Regression ([3]; 30 mg/kg): 0%
- MIR: Maximum inhibitory rate ([3]; 30 mg/kg): 58.8 ± 9.2%
- PR: Partial Regression ([3]; 30 mg/kg): 0%
- TD: Tumor doubling time ([3]; 30 mg/kg): 6.2 ± 0.9 days
- CR: Complete Regression ([3]; 40 mg/kg): 25%
- MIR: Maximum inhibitory rate ([3]; 40 mg/kg): 79.2 ± 7.5%
- PR: Partial Regression ([3]; 40 mg/kg): 25%
- TD: Tumor doubling time ([3]; 40 mg/kg): 7.1 ± 0.5 days
- CR: Complete Regression ([3]; 50 mg/kg): 25%
- MIR: Maximum inhibitory rate ([3]; 50 mg/kg): 79.2 ± 6.2%
- PR: Partial Regression ([3]; 50 mg/kg): 50%
- TD: Tumor doubling time ([3]; 50 mg/kg): 8.4 ± 0.4 days
- antitumor response [3, 7]: 75%
- complete tumor regression [3, 7]: 25%
- IC50 [4]: 5500 nM
- IC50 ([5]; 50 μM dihydrofolate, 80 μM NADPH, pH 7.4, 30°): 44 nM
- IC50 Compound/IC50 MTX ([5]; ratio to MTX): 2.58
- IC50 (H35 hepatoma cells): 39 nM
- CR: Complete Regression ([6]; 0.5 mg/kg): 0%
- MIR: Maximum inhibitory rate ([6]; 0.5 mg/kg): 49.8 ± 8.2%
- PR: Partial Regression ([6]; 0.5 mg/kg): 0%
- TD: Tumor doubling time ([6]; 0.5 mg/kg): 5.3 ± 0.9 days
- CR: Complete Regression ([6]; 1 mg/kg): 0%
- MIR: Maximum inhibitory rate ([6]; 1 mg/kg): 56.4 ± 7.8%
- PR: Partial Regression ([6]; 1 mg/kg): 0%
- TD: Tumor doubling time ([6]; 1 mg/kg): 6.0 ± 0.7 days
- CR: Complete Regression ([6]; 2 mg/kg(/day)): 38%
- PR: Partial Regression ([6]; 2 mg/kg(/day)): 38%
- MIR: Maximum inhibitory rate ([6]; 2 mg/kg): 81.7 ± 7.2%
- TD: Tumor doubling time ([6]; 2 mg/kg): 12.4 ± 5.8 days

From patent US5550128A, “Enantiomers of gamma methylene 10-deaza aminopterin and process for preparing the same” (priority 1994, dated 1996)
